Here are results for one molecule from patent US20200223848A1, “DEGRADATION AGENT USING AUTOPHAGIC MECHANISM OF DAMAGED MITOCHONDRIA” (TOHOKU UNIVERSITY, priority 2017, published 2020).

What all share (type): cell-based
One experiment relates to Detroit532 cells. Nature of the experiment: JC-1 staining of mitochondrial membrane potential. To be noted: Down syndrome patient foreskin-derived fibroblasts; 10 μM, incubation for 3 days. The method, then: Detroit532 cells, which were Down syndrome patient foreskin-derived fibroblasts, were cultured in Eagle's Minimum Essential Medium. The cells were divided into two groups. A compound (Indole-FBn) was added to an experimental group at a final concentration of 10 μM, and was not added to a control group, followed by incubation for 3 days (37° C., 5% CO2). The cells of each group were each stained with JC-1 (abcam, 113850).
The JC-1 dye accumulates in mitochondria having a normal membrane potential to emit red fluorescence. Meanwhile, its localization is lost from mitochondria having an abnormal membrane potential and green fluorescence is emitted. That is, in a JC-1 staining image, a lower “green/red fluorescence intensity ratio” means that the membrane potential of mitochondria is kept more normal. Staining images were analyzed with ImageJ (National Institute of Health), and the “green/red fluorescence intensity ratio” is shown as a graph. Error bars represent standard deviations obtained from data from three independent experiments.

The test system of experiment [1] is HeLa cells stably expressing EmGFP-HaloTag-Omp25. Description: Living cell imaging of degradation of injured mitochondria (EmGFP-HaloTag-Omp25 green and MitoTracker Red CMXRos red fluorescence). The procedure:
HeLa cells cultured in Dulbecco's Modified Eagle Medium (DMEM) were transfected with the plasmid pEmGFP-HaloTag-Omp25 containing a gene sequence encoding the EmGFP-HaloTag-Omp25 fusion protein localized on the mitochondrial outer membrane, and were allowed to stably express the protein. As a result, mitochondria in the cells were able to be observed using green fluorescence as an indicator.
A red fluorescent dye MitoTracker Red CMXRos (Thermo Fisher Scientific, M7513) was added thereto, followed by incubation for 30 minutes to stain mitochondria. At this stage, the mitochondria in the cells had been stained in two colors by EmGFP-HaloTag-Omp25 and MitoTracker Red CMXRos. Subsequently, MitoTracker Red CMXRos in the medium was removed by medium exchange. Mitochondria to be biosynthesized after this operation can only be detected with green fluorescence, and are not to be detected with red fluorescence. This difference was utilized to observe the degradation process of mitochondria by living cell imaging.
The cells were divided into two groups. Indole-FBn was added to an experimental group at a final concentration of […] was not added to a control group. In order to observe living cells at a fixed point for a long period of time, a culture vessel was fixed to a stage-top incubator (37° C., 5% CO2) mounted on a fluorescence microscope (KEYENCE, BX9000), and all the subsequent operations were performed on the microscope. […]
The signals of EmGFP-HaloTag-Omp25 and MitoTracker Red CMXRos at the time of the addition of Indole-FBn (−10 h), the time of the addition of CCCP (0 h), 2 hours after the addition of CCCP (+2 h), […] after the addition of CCCP (+8 h), and 16 hours after the addition of CCCP (+16 h) are shown in FIG. 6 and FIG. 7. In the graphs, the intensities of the signals of EmGFP-HaloTag-Omp25 (green fluorescence) and MitoTracker Red CMXRos (red fluorescence) in the photographs shown in FIG. 6 are shown as relative values with the respective intensities at −10 h being defined as 1. […]

The next experiment concerns HeLa cells. Description: Cytoprotective effect against mitochondrial injury induced by uncoupler CCCP (Hoechst33342 nuclear staining, DNA fragmentation, cell viability). The source says: Assessment Method for Cytoprotective Effect of Compound of Example 3, (R)-2-Acetylamino-3-[2-amino-9-(4-fluoro-benzyl)-6-oxo-6,9-dihydro-1H-purin-8-ylsulfanyl]-N-{3-[2-(2-{3-[2-oxo-2-(2-phenyl-1H-indol-3-yl)-acetylamino]-propoxy}-ethoxy)-ethoxy]-propyl}-propionamide (Indole-FBn), Against Mitochondrial Injury, and Confirmation of Inhibition of Cytoprotective Effect with Autophagy Inhibitor (Bafilomycin A1: Baf A1)
Cell Viability under Condition of Treating Cells with Indole-FBn and CCCP (Test Group):
HeLa cells seeded in Dulbecco's Modified Eagle Medium (DMEM) in a 96-well plate at 30,000 cells/well were incubated under the conditions of 37° C./5% CO2 overnight. […]
Subsequently, the uncoupler CCCP was added at a final concentration of 10 μM, followed by further incubation for 2 hours to induce mitochondrial injury. Cells in each of which DNA fragmentation was found in the nucleus were judged to be dead cells, and cell viability was calculated by the following equation. […]
HeLa cells seeded in Dulbecco's Modified Eagle Medium (DMEM) in a 96-well plate at 30,000 cells/well were incubated under the conditions of 37° C./5% CO2 for 1 day, and then subjected to nuclear staining by Hoechst33342 staining. […] Cells in each of which DNA fragmentation was found in the nucleus were judged to be dead cells, and cell viability was calculated. […]

Regarding `CC(=O)N[C@@H](CSc1nc2c(=O)[nH]c(N)nc2n1Cc1ccc(F)cc1)C(=O)NCCCOCCOCCOCCCNC(=O)C(=O)c1c(-c2ccccc2)[nH]c2ccccc12` [Indole-FBn, (R)-2-Acetylamino-3-[2-amino-9-(4-fluoro-benzyl)-6-oxo-6,9-dihydro-1H-purin-8-ylsulfanyl]-N-{3-[2-(2-{3-[2-oxo-2-(2-phenyl-1H-indol-3-yl)-acetylamino]-propoxy}-ethoxy)-ethoxy]-propyl}-propionamide], the “quality of mitochondria (JC-1 green/red fluorescence intensity ratio, membrane potential)” value in the experiment with Detroit532 cells is listed as “significantly improved”. The “green and red signal intensities after the addition of CCCP” value in experiment [1] (Indole-FBn-treated group, 2 h, 8 h after CCCP, relative to intensities at -10 h defined as 1) is on record as “reduced”. For the same molecule, the “removal of injured mitochondria and production of new mitochondria” value in experiment [1] (living cell imaging experiment, overall conclusion) is “promoted both the removal of injured mitochondria and the production of new mitochondria”. For the same molecule, the “green fluorescence intensity, comparison of 8 hours and 16 hours after the addition of CCCP” value in experiment [1] (only in the Indole-FBn-treated group, indicates production of new mitochondria) is reported as “increased”. In addition, in the experiment on HeLa cells (Baf A1 200 nM added 2 hours before Indole-FBn treatment, CCCP 10 μM), the “cytoprotective effect under the CCCP-treated condition in coexistence of autophagy inhibitor Baf A1” value is “significantly inhibited”. In the experiment with HeLa cells (Indole-FBn 1 μM for 10 hours, then CCCP 10 μM for 2 hours, versus non-Indole-FBn-treated control), the “cell death due to mitochondrial injury (cell viability)” value is reported as “significantly suppressed cell death”.
